Results published in US20260265233A1, “BENZOTHIOPHENE DERIVATIVES AS RXFP1 AGONISTS” (BRISTOL-MYERS SQUIBB COMPANY, priority 2021, published 2026).

Biological target: T1, human RXFP1 (Homo sapiens, UniProt Q9HBX9)
T1 construct: expressed in transfected cells
T1 sequence (Q9HBX9 1-757): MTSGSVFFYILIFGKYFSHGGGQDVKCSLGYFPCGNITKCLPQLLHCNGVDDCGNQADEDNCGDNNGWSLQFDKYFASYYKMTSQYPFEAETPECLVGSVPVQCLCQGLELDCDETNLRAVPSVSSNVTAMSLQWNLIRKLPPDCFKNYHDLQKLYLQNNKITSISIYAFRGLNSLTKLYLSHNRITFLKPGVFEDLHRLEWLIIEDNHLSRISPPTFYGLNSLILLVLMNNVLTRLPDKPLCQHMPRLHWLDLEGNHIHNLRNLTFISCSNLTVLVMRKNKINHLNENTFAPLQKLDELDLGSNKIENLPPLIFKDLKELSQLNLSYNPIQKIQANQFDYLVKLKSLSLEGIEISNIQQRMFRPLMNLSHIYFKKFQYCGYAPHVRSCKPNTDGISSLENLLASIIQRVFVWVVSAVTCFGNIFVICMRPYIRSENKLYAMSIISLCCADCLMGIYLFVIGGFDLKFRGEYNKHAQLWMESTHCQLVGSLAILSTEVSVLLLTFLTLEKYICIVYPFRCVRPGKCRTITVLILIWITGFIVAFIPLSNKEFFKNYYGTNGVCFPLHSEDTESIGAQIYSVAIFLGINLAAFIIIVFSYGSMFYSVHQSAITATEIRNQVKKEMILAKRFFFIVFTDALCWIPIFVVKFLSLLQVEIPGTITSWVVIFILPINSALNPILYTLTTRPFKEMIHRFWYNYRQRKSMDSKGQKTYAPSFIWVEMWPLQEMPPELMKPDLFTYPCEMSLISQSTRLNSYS
Test: hRXFP1 HEK293 cAMP assay (HTRF)
Type: cell-based
Conditions: HEK293 cells stably expressing human RXFP1; 30 min at rt; intracellular cAMP by HTRF
Experimental: RXFP1 Cyclic Adenosine Monophosphate (cAMP) Assays. Human embryonic kidney cells 293 (HEK293) cells and HEK293 cells stably expressing human RXFP1, were cultured in MEM medium supplemented with 10% qualified FBS, and 300 μg/ml hygromycin (Life Technologies). Cells were dissociated and suspended in assay buffer. The assay buffer was HBSS buffer (with calcium and magnesium) containing 20 mM HEPES, 0.05% BSA, and 0.5 mM IBMX. Cells (3000 cells per well, except 1500 cell per well for HEK293 cells stably expressing human RXFP1) were added to 384-well Proxiplates (Perkin-Elmer). Cells were immediately treated with test compounds in DMSO (2% final) at final concentrations in the range of 0.010 nM to 50 μM. Cells were incubated for 30 min at rt. The level of intracellular cAMP was determined using the HTRF HiRange cAMP assay reagent kit (Cisbio) according to manufacturer's instructions. Solutions of cryptate conjugated anti-cAMP and d2 fluorophore-labelled cAMP were made in a supplied lysis buffer separately. Upon completion of the reaction, the cells were lysed with equal volume of the d2-cAMP solution and anti-cAMP solution. After a 1 h rt incubation, time-resolved fluorescence intensity was measured using the Envision (Perkin-Elmer) at 400 nm excitation and dual emission at 590 nm and 665 nm. A calibration curve was constructed with an external cAMP standard at concentrations ranging from 2.7 μM to 0.1 pM by plotting the fluorescent intensity ratio from 665 nm emission to the intensity from the 590 nm emission against cAMP concentrations. The potency and activity of a compound to […] cAMP production was then determined by fitting to a 4-parametric logistic equation from a plot of cAMP level versus compound concentrations.
The examples disclosed below were tested in the human RXFP1 (hRXFP1) HEK293 cAMP assay described above and found to have agonist activity.

| Structure (SMILES) | EC50 |
| --- | --- |
| COc1ccc(C2CCN(C(=O)CCO)C2)cc1C(=O)Nc1c(C(=O)Nc2ccc(F)c(C(F)(F)F)c2)sc2cc(C(F)(F)F)ccc12 (stereo not drawn) [Example 137, N-(4-fluoro-3-(trifluoromethyl)phenyl)-3-(5-(1-(3-hydroxypropanoyl)pyrrolidin-3-yl)-2-methoxy-benzamido)-6-(trifluoromethyl) benzo[b] thiophene-2-carboxamide] | 591 nM |
| COCCNC(=O)c1ccc(OC)c(C(=O)Nc2c(C(=O)Nc3ccc(F)c(C(F)(F)F)c3)sc3cc(C(F)(F)F)ccc23)c1 [Example 218, N3-(2-((4-fluoro-3-(trifluoromethyl)phenyl)carbamoyl)-6-(trifluoromethyl)benzo[b]thiophen-3-yl)-4-methoxy-N1-(2-methoxyethyl) isophthalamide] | 1130 nM |
| COc1ccc(C(=O)NCCS(C)(=O)=O)cc1C(=O)Nc1c(C(=O)Nc2ccc(F)c(C(F)(F)F)c2)sc2cc(Cl)ncc12 [Example 197, N3-(6-chloro-2-((4-fluoro-3-(trifluoromethyl)phenyl)carbamoyl)thieno[3,2-c]pyridin-3-yl)-4-methoxy-N1-(2-(methylsulfonyl)ethyl) isophthalamide] | 450 nM |
| COc1ccc(C(=O)N2CCC(O)CC2)cc1C(=O)Nc1c(C(=O)Nc2ccc(F)c(C(F)(F)F)c2)sc2cc(Cl)ncc12 [Example 241, 6-chloro-N-(4-fluoro-3-(trifluoromethyl)phenyl)-3-(5-(4-hydroxy-piperidine-1-carbonyl)-2-methoxy-benzamido) thieno[3,2-c]pyridine-2-carboxamide] | 3900 nM |
| COc1ccc(-n2cc(C(C)(C)O)cn2)cc1C(=O)Nc1c(C(=O)Nc2ccc(F)c(C(F)(F)F)c2)sc2cc(C(F)(F)F)ccc12 [Example 3, N-(4-fluoro-3-(trifluoromethyl)phenyl)-3-(5-(4-(2-hydroxypropan-2-yl)-1H-pyrazol-1-yl)-2-methoxybenzamido)-6-(trifluoromethyl) benzo[b]thiophene-2-carboxamide] | 350 nM |
| COc1ccc(C(=O)N2CC(C)(C)C2)cc1C(=O)Nc1c(C(=O)Nc2ccc(F)c(C(F)(F)F)c2)sc2cc(C(F)(F)F)ccc12 [Example 27, 3-(5-(3,3-dimethylazetidine-1-carbonyl)-2-methoxybenzamido)-N-(4-fluoro-3-(trifluoromethyl)phenyl)-6-(trifluoromethyl) benzo[b]thiophene-2-carboxamide] | 1720 nM |
| COc1cc(F)c(C(=O)N2CC(C(C)(C)O)C2)cc1C(=O)Nc1c(C(=O)Nc2ccc(F)c(C(F)(F)F)c2)sc2cc(C(F)(F)F)ccc12 [Example 182, N-(4-fluoro-3-(trifluoromethyl)phenyl)-3-(4-fluoro-5-(3-(2-hydroxypropan-2-yl)azetidine-1-carbonyl)-2-methoxy-benzamido)-6-(trifluoromethyl) benzo[b] thiophene-2-carboxamide] | 357 nM |
| COc1ccc(C2CCCN(CCS(C)(=O)=O)CC2)cc1C(=O)Nc1c(C(=O)Nc2ccc(F)c(C(F)(F)F)c2)sc2cc(C(F)(F)F)ccc12 (stereo not drawn) [Example 74, N-(4-fluoro-3-(trifluoromethyl)phenyl)-3-(2-methoxy-5-(1-(2-(methylsulfonyl)ethyl)azepan-4-yl)benzamido)-6-(trifluoromethyl) benzo[b] thiophene-2-carboxamide] | 3370 nM |
| COc1ccc(-c2cnc(C3(O)CCS(=O)(=O)C3)nc2)cc1C(=O)Nc1c(C(=O)Nc2ccc(F)c(C(F)(F)F)c2)sc2cc(C(F)(F)F)ccc12 (single isomer, unassigned) [Example 23, N-(4-fluoro-3-(trifluoromethyl)phenyl)-3-(5-(2-(3-hydroxy-1,1-dioxidotetrahydrothiophen-3-yl)pyrimidin-5-yl)-2-methoxybenzamido)-6-(trifluoromethyl)benzo[b]thiophene-2-carboxamide] | 3100 nM |
| COc1ccc(C2=NOC3(CCNCC3)C2)cc1C(=O)Nc1c(C(=O)Nc2ccc(F)c(C(F)(F)F)c2)sc2cc(C(F)(F)F)ccc12 [Example 272, N-(4-fluoro-3-(trifluoromethyl)phenyl)-3-(2-methoxy-5-(1-oxa-2,8-diazaspiro[4.5]dec-2-en-3-yl)benzamido)-6-(trifluoromethyl) benzo[b] thiophene-2-carboxamide] | 900 nM |
| COc1ccc(N2CCCC(NCC(N)=O)C2)cc1C(=O)Nc1c(C(=O)Nc2ccc(F)c(C(F)(F)F)c2)sc2cc(C(F)(F)F)ccc12 (stereo in doubt) [Example 210, (S)-3-(5-(3-((2-amino-2-oxoethyl)amino)piperidin-1-yl)-2-methoxy-benzamido)-N-(4-fluoro-3-(trifluoromethyl)phenyl)-6-(trifluoromethyl) benzo[b] thiophene-2-carboxamide] | 1930 nM |

Now those with a lower EC50, led by results:

| EC50 | Structure (SMILES) |
| --- | --- |
| 295 nM | COc1ccc(C2CC2C(=O)O)cc1C(=O)Nc1c(C(=O)Nc2ccc(F)c(C(F)(F)F)c2)sc2cc(C(F)(F)F)ccc12 (stereo not drawn) [Example 46, 2-(3-((2-((4-fluoro-3-(trifluoromethyl)phenyl)carbamoyl)-6-(trifluoromethyl)benzo[b]thiophen-3-yl)carbamoyl)-4-methoxyphenyl) cyclopropane-1-carboxylic acid] |
| 292 nM | COc1ccc(C2CC2C(=O)N2CC(O)C2)cc1C(=O)Nc1c(C(=O)Nc2ccc(F)c(C(F)(F)F)c2)sc2cc(C(F)(F)F)ccc12 (stereo not drawn) [Example 162, N-(4-fluoro-3-(trifluoromethyl)phenyl)-3-(5-(2-(3-hydroxyazetidine-1-carbonyl)cyclopropyl)-2-methoxy-benzamido)-6-(trifluoromethyl) benzo[b] thiophene-2-carboxamide] |
| 216 nM | COc1ccc(-c2noc(C(C)(C)O)n2)cc1C(=O)Nc1c(C(=O)Nc2ccc(F)c(C(F)(F)F)c2)sc2cc(C(F)(F)F)ccc12 [Example 59, N-(4-fluoro-3-(trifluoromethyl)phenyl)-3-(5-(5-(2-hydroxypropan-2-yl)-1,2,4-oxadiazol-3-yl)-2-methoxybenzamido)-6-(trifluoromethyl) benzo[b]thiophene-2-carboxamide] |
| 176 nM | COc1ccc(C2CC2C(=O)N2CC(S(C)(=O)=O)C2)cc1C(=O)Nc1c(C(=O)Nc2ccc(F)c(C(F)(F)F)c2)sc2cc(C(F)(F)F)ccc12 (single isomer, unassigned) [Example 168, N-[4-fluoro-3-(trifluoromethyl)phenyl]-3-{5-[2-(3-methane-sulfonylazetidine-1-carbonyl)cyclopropyl]-2-methoxy-benzamido}-6-(trifluoromethyl)-1-benzothiophene-2-carboxamide] |
| 166 nM | COc1ccc(C2=NOC(C(C)(C)O)C2)cc1C(=O)Nc1c(C(=O)Nc2ccc(F)c(C(F)(F)F)c2)sc2cc(C(F)(F)F)ccc12 (single isomer, unassigned) [Example 257, N-[4-fluoro-3-(trifluoromethyl)phenyl]-3-{5-[5-(2-hydroxypropan-2-yl)-4,5-dihydro-1,2-oxazol-3-yl]-2-methoxy-benzamido}-6-(trifluoromethyl)-1-benzothiophene-2-carboxamide] |
| 72.6 nM | COc1ccc(C2CCN(C(=O)C(C)(C)CO)C2)cc1C(=O)Nc1c(C(=O)Nc2ccc(F)c(C(F)(F)F)c2)sc2cc(C(F)(F)F)ccc12 (single isomer, unassigned) [Example 139, N-(4-fluoro-3-(trifluoromethyl)phenyl)-3-(5-(1-(3-hydroxy-2,2-dimethyl-propanoyl)pyrrolidin-3-yl)-2-methoxy-benzamido)-6-(trifluoromethyl) benzo[b] thiophene-2-carboxamide] |
| 48.7 nM | COc1cc(F)c(C(=O)N2CC(S(C)(=O)=O)C2)cc1C(=O)Nc1c(C(=O)Nc2ccc(F)c(C(F)(F)F)c2)sc2cc(C(F)(F)F)ccc12 [Example 28, 3-(4-fluoro-2-methoxy-5-(3-(methylsulfonyl)azetidine-1-carbonyl)benzamido)-N-(4-fluoro-3-(trifluoromethyl)phenyl)-6-(trifluoromethyl)benzo[b]thiophene-2-carboxamide] |
